These results are taken from patent US20230322776A1, “NEW ARYL-PYRIDO-PYRIMIDIN-ONE DERIVATIVES” (Hoffmann-La Roche Inc., priority 2020, published 2023).

Assay [1] has as its system A375 cells (V600E mutated BRAF), ERK phospho-T202/Y204. As to the kind of experiment: HTRF assay for P-ERK determination in A375 cells (BRAF inhibition). The class given is cell-based. The conditions noted are these: Homo sapiens, A-375, 1 hour drug incubation, DMSO = 100%, 10 μM Dabrafenib = 0%, top concentration 10 μM, read-out: P-ERK_A375: IC50. The text has this:
(§1) A375 is a cellular cancer model expressing V600E mutated BRAF and HCT116 a cellular cancer model expressing WT BRAF. First generation BRAF inhibitors such as e.g. dabrafenib induce a paradox effect on tumour cells in that they inhibit the growth of V600E mutated BRAF cells (such as e.g. A375), while they activate growth in WT BRAF cells (such as e.g. HCT 116). ERK 1,2 phosphorylation (terminal member of the phosphorylation cascade of the MAPK pathway) is hereafter reported as main readout for the activation status of the MAPK pathway. DMEM no-phenol red medium supplemented with L-glutamine was purchased from (Thermo Fisher Scientific). Fetal bovine serum (FBS) was purchased from VWR. Advanced ERK phospho-T202/Y204 kit—10,000 tests was purchased from Cisbio cat #64AERPEH. A375 (catalog #CRL-1619) and HCT116 (catalog #CCL-247) cells were originally obtained from American type Culture Collection (ATCC) and banked by the Roche repository. 384-Well microplates ultized were purchased from Greiner Bio-One, 384-well, (With Lid, HiBase, Low volume cat 784-080).
(§2) HTRF Assay for P-ERK Determination in A375 or HCT116 Cells
(§3) Prior to the assay, A375 and HCT116 cell lines are maintained in DMEM no-phenol red medium supplemented with 10% fetal bovine serum (FBS). Following compound treatment, P-ERK levels are determined by measuring FRET fluorescence signal induced by selective binding of two antibodies provided in the mentioned kit (Cisbio cat #64AERPEH) on ERK protein when phosphorylated at Thr202/Tyr204. Briefly, 8000 cells/well in 12 μl media/well are plated in the 384-well plate and left overnight in the incubator (at 37° C. with 5% CO2-humidified atmosphere), the following day the plate is treated in duplicate with test compounds, dabrafenib and PLX8394 (the latter two as controls) at the following final drug concentrations: 10 μM, 3 μM, 1 μM, 0.3 μM, 0.1 μM, 0.03 μM, 0.01 μM, 0.003 μM and 0.001 μM. All wells are subjected to DMSO normalization and drug incubation occurs for 1 hour. Then, 4 μl of a 4× lysis buffer supplied with the kit are added to the wells, the plate is then centrifuged for 30 second (3000 rpm) and incubated on a plate shaker for 1 h at rt.
(§4) At the end of the incubation 4 μl/well of advanced P-ERK antibody solution (prepared according to manufacturer's instruction) followed by 4 μl/well of criptate P-ERK antibody solution (prepared according to manufacturer's instruction) (Cisbio cat #64AERPEH) are added to test wells.
(§5) In order to allow proper data normalization, control wells non drug treated reported in the following table are always included in each plate (according to manufacturer's instruction):
(§6) The plate is then centrifuged at 3000 rpm for 30 seconds, sealed to prevent evaporation and incubated overnight in the dark at room temperature. The plate is then analyzed and fluorescence emission value collected through a Pherastast FSX (BMG Labtech) apparatus at […]. The obtained fluorescence values are processed according to the formula Ratio=[…]*10000 then the average of the ratio on the blank is subtracted to all values.
Data are normalized in the case of A375 cells (BRAF inhibition) considering the average of the ratio (blank subtracted) derived by DMSO only treated cells as 100% and by considering the average of the ratio (blank subtracted) derived by 10 μM Dabrafenib treated cells as 0%. Mean of the normalized points are fitted with sigmoidal curve and IC50 values are determined.
In general terms: TR-FRET usually uses a lanthanide donor and a delayed reading to cut background.

The target in the next assay is BRAF (Homo sapiens, UniProt P15056). Briefly: KD BRAF (Table 1; no method described). It counts as binding.
Sequence of BRAF (P15056 whole entry): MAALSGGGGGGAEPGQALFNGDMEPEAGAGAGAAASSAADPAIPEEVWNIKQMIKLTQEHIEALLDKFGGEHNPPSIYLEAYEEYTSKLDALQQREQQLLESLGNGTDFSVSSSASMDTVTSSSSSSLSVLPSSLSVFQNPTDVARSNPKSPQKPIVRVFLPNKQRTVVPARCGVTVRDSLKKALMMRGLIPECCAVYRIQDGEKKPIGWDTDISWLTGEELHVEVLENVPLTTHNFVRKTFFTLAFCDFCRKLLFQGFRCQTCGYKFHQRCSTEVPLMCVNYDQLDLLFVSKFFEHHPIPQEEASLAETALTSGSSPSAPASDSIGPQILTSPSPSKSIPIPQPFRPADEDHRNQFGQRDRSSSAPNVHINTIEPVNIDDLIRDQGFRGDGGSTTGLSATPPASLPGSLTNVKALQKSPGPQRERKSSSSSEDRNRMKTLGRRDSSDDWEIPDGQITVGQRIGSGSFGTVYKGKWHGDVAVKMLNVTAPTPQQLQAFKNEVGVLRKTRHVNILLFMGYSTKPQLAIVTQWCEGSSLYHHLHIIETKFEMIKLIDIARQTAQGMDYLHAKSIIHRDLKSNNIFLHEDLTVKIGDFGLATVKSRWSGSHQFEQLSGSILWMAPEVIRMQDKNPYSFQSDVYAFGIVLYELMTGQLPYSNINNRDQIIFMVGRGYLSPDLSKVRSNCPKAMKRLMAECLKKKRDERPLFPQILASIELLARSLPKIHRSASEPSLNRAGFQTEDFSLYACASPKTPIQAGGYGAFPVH
The target of a further assay is BRAF V660E (Homo sapiens, UniProt P15056, V600E). As to the kind of experiment: KD BRAF V660E (Table 1; no method described). The class given is binding.
Sequence of BRAF V660E (P15056 2-766 V600E): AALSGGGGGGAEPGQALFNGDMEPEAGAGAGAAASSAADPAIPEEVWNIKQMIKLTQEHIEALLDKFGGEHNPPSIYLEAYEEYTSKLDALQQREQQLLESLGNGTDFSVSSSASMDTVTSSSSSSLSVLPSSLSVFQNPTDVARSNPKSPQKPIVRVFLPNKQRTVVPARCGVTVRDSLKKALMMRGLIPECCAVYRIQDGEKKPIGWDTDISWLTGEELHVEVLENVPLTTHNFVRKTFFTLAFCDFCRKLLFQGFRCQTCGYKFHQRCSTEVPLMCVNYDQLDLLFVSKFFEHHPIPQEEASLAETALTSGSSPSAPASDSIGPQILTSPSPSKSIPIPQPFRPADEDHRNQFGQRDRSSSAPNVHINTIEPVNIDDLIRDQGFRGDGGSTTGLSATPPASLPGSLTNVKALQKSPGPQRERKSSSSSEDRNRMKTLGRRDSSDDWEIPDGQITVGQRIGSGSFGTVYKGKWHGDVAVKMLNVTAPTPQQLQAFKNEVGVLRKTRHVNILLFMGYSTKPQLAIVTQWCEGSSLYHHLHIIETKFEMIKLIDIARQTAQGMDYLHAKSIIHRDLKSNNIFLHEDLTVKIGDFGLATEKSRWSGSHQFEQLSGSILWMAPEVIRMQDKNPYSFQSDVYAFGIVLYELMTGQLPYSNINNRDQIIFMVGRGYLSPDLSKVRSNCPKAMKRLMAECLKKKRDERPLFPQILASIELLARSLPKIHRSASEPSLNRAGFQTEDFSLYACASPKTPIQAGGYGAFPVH
In assay [2] the test system is HCT116 cells (WT BRAF), ERK phospho-T202/Y204. Briefly: HTRF assay for P-ERK determination in HCT116 cells (BRAF activation, paradox). The class given is cell-based. The conditions noted are these: for EC50: Homo sapiens, HCT-116, HCT116 cells, 1 hour drug incubation, activation relative to maximum Dabrafenib-mediated activation (100%), top concentration 10 μM, read-out: P-ERK_HCT-116: EC50—50PCT; for Fold Selectivity HCT-116 EC50-50/ A375: ratio of P-ERK HCT-116 EC50-50PCT to P-ERK A375 IC50.
Source text: as §1, §2, §3, §4, §5, §6
Data are normalized in the case of HCT116 cells (BRAF activation) considering the average of the ratio (blank subtracted) derived by DMSO only treated cells as 0% and by considering the average of the ratio (blank subtracted) derived by Dabrafenib treated cells at the concentration which provides the highest signal as 100%. Individual points are fitted with either sigmoidal or bell shape curves, the percentage of activation compared to maximum Dabrafenib-mediated activation is determined.

`CC(=O)NCCOCCOCCNc1ncc2cc(-c3c(F)ccc(NS(=O)(=O)N4CC[C@@H](F)C4)c3F)c(=O)n(C)c2n1` [Example 32, N-[2-[2-[2-[[6-[2,6-difluoro-3-[[(3R)-3-fluoropyrrolidin-1-yl]sulfonylamino]phenyl]-8-methyl-7-oxopyrido[2,3-d]pyrimidin-2-yl]amino]ethoxy]ethoxy]ethyl]acetamide]: in assay [1], the IC50 worked out at 196 nM. This molecule gave an equilibrium dissociation constant (Kd) at BRAF of 23.6 nM. This molecule had a Kd at BRAF V660E of 70 nM. For the same molecule, in assay [2], the EC50 is at least 10 µM and the “Fold Selectivity HCT-116 EC50-50/ A375” value is on record as above 51.1.
In the case of `CCN(C)S(=O)(=O)Nc1ccc(F)c(-c2cc3cnc(NCCOCCOCCO)nc3n(C)c2=O)c1F` [Example 9, 6-[3-[[ethyl(methyl)sulfamoyl]amino]-2,6-difluorophenyl]-2-[2-[2-(2-hydroxyethoxy)ethoxy]ethylamino]-8-methyl-7-oxopyrido[2,3-d]pyrimidine], the IC50 in assay [1] stood at 153 nM. Besides, binding on BRAF was characterised by a dissociation constant (Kd) of 136 nM. The same molecule showed a Kd on BRAF V660E of 417 nM. For the same molecule, in assay [2], the half-maximal effective concentration (EC50) was at least 10 µM and the “Fold Selectivity HCT-116 EC50-50/ A375” value was above 65.4.
`CN(C1CC1)S(=O)(=O)Nc1ccc(F)c(-c2cc3cnc(NCC4CC4)nc3n(C)c2=O)c1F` [Example 12, 2-(cyclopropylmethylamino)-6-[3-[[cyclopropyl(methyl)sulfamoyl]amino]-2,6-difluorophenyl]-8-methyl-7-oxopyrido[2,3-d]pyrimidine]: the half-inhibitory concentration (IC50) in assay [1] turned out to be 109 nM. Moreover, at BRAF, binding was characterised by a dissociation constant (Kd) of 84.9 nM. At BRAF V660E, this molecule registered a Kd of 487 nM. Moreover, in assay [2], the EC50 amounted to 2.22 µM and the “Fold Selectivity HCT-116 EC50-50/ A375” value was determined as 20.4.
For `CC(=O)NCc1ccc(CCNc2ncc3cc(-c4c(F)ccc(NS(=O)(=O)N5CC[C@@H](F)C5)c4F)c(=O)n(C)c3n2)cc1` [Example 35, N-[[4-[2-[[6-[2,6-difluoro-3-[[(3R)-3-fluoropyrrolidin-1-yl]sulfonylamino]phenyl]-8-methyl-7-oxopyrido[2,3-d]pyrimidin-2-yl]amino]ethyl]phenyl]methyl]acetamide], the half-inhibitory concentration (IC50) in assay [1] is 37.3 nM. Moreover, the Kd on BRAF came out at 5.7 nM; on BRAF V660E, 22.1 nM. In addition, in assay [2], the EC50 turned out to be 1.49 µM. In addition, in assay [2], the “Fold Selectivity HCT-116 EC50-50/ A375” value amounted to 40.0.
On the same counts, the results for `CC(=O)N[C@H]1CC[C@H](Nc2ncc3cc(-c4c(F)ccc(NS(=O)(=O)N5CC[C@@H](F)C5)c4F)c(=O)n(C)c3n2)C1` [Example 24, N-[(1S,3S)-3-[[6-[2,6-difluoro-3-[[(3R)-3-fluoropyrrolidin-1-yl]sulfonylamino]phenyl]-8-methyl-7-oxopyrido[2,3-d]pyrimidin-2-yl]amino]cyclopentyl]acetamide] are 126 nM, 8.2 nM, 27.5 nM, 8.87 µM and 70.7.
As to `CC(=O)NCCOCCNc1ncc2cc(-c3c(F)ccc(NS(=O)(=O)N4CC[C@@H](F)C4)c3F)c(=O)n(C)c2n1` [Example 29, N-[2-[2-[[6-[2,6-difluoro-3-[[(3R)-3-fluoropyrrolidin-1-yl]sulfonylamino]phenyl]-8-methyl-7-oxopyrido[2,3-d]pyrimidin-2-yl]amino]ethoxy]ethyl]acetamide], the half-inhibitory concentration (IC50) in assay [1] stood at 375 nM. Further, the dissociation constant Kd at BRAF was found to be 20.1 nM. On BRAF V660E, this molecule showed a Kd of 60.1 nM. Further, in assay [2], the EC50 is at least 10 µM and the “Fold Selectivity HCT-116 EC50-50/ A375” value is above 26.7.
On the same counts, the results for `CCN(C)S(=O)(=O)Nc1ccc(F)c(-c2cc3cnc(NCC4CC4)nc3n(CCOCc3ccccc3)c2=O)c1F` [Example 44, 2-(Cyclopropylmethylamino)-6-[3-[[ethyl(methyl)sulfamoyl]amino]-2,6-difluorophenyl]-7-oxo-8-(2-phenylmethoxyethyl)pyrido[2,3-d]pyrimidine] are 1900 nM, 1380 nM, 1750 nM, at least 10 µM and above 5.3.
Regarding `Cl.Cn1c(=O)c(-c2c(F)ccc(NS(=O)(=O)N3CC[C@@H](F)C3)c2F)cc2cnc(NCCCC3CCNCC3)nc21` [Example 18, (3R)-N-[2,4-difluoro-3-[8-methyl-7-oxo-2-(3-piperidin-4-ylpropylamino)pyrido[2,3-d]pyrimidin-6-yl]phenyl]-3-fluoropyrrolidine-1-sulfonamide hydrochloride], in assay [1], the IC50 was 207 nM. The same molecule had a Kd at BRAF of 25.5 nM. The molecule also gave a Kd on BRAF V660E of 71.6 nM. Moreover, in assay [2], the EC50 worked out at 5.87 µM and the “Fold Selectivity HCT-116 EC50-50/ A375” value came out at 28.3.
Regarding `Cl.NCCOCCOCCn1c(=O)c(-c2c(F)ccc(NS(=O)(=O)N3CC[C@@H](F)C3)c2F)cc2cnc(NCC3CC3)nc21` [Example 39, (3R)—N-[3-[8-[2-[2-(2-aminoethoxy)ethoxy]ethyl]-2-(cyclopropylmethylamino)-7-oxopyrido[2,3-d]pyrimidin-6-yl]-2,4-difluorophenyl]-3-fluoropyrrolidine-1-sulfonamide; hydrochloride], the IC50 in assay [1] is at least 10000 nM. Binding on BRAF was put at a Kd of 13.4 nM. In addition, on BRAF V660E, the equilibrium dissociation constant (Kd) turned out to be 41.3 nM. Further, in assay [2], the 50% effective concentration (EC50) was at least 10 µM and the “Fold Selectivity HCT-116 EC50-50/ A375” value amounted to 1.0.
With `Cn1c(=O)c(-c2c(F)ccc(NS(=O)(=O)N3CC[C@@H](F)C3)c2F)cc2cnc(NCCc3ccccc3)nc21` [Example 2, (3R)-N-[2,4-difluoro-3-[8-methyl-7-oxo-2-(2-phenylethylamino)pyrido[2,3-d]pyrimidin-6-yl]phenyl]-3-fluoropyrrolidine-1-sulfonamide], in assay [1], the IC50 came out at 6 nM. The same molecule returned an equilibrium dissociation constant (Kd) on BRAF of 7.9 nM. For the same molecule, binding at BRAF V660E was put at a Kd of 23 nM. Also, in assay [2], the EC50 came to 0.491 µM and the “Fold Selectivity HCT-116 EC50-50/ A375” value stood at 81.8.
For `CC(=O)N1CCC(O)(CCNc2ncc3cc(-c4c(F)ccc(NS(=O)(=O)N5CC[C@@H](F)C5)c4F)c(=O)n(C)c3n2)CC1` [Example 26, (3R)-N-[3-[2-[2-(1-acetyl-4-hydroxypiperidin-4-yl)ethylamino]-8-methyl-7-oxopyrido[2,3-d]pyrimidin-6-yl]-2,4-difluorophenyl]-3-fluoropyrrolidine-1-sulfonamide], the 50% inhibitory concentration (IC50) in assay [1] is 271 nM. The same molecule displayed a Kd on BRAF of 9.4 nM. The same molecule had a Kd at BRAF V660E of 27.5 nM. In assay [2], the concentration for a half-maximal effect (EC50) was at least 10 µM and the “Fold Selectivity HCT-116 EC50-50/ A375” value was above 36.9.

A word on the IC50: it is the concentration needed to halve the response being measured. One may read the Kd as a measure of binding affinity in units of concentration. Read a low Kd as a tighter complex. Usually EC50 stands for the concentration that produces a half-maximal response.
